Experimental data taken from US20180273598A1, “ADHD MARKER, APPLICATION THEREOF AND KIT” (WENZHOU KANGNING HOSPITAL CO., LTD., priority 2017, published 2018).

Legend:
[1] = system: wild larvae zebrafish; experiment: Behavior tracking of wild-type zebrafish larvae treated with GHSR-1a antagonist; type: in vivo; conditions: wild-type (AB) embryos treated from 6 hpf to 3 dpf; 0.08 uM/L YIL781 (FIG. 4)
Method: Zebrafish embryos (AB) were treated with different concentrations of YIL781 (0.08 uM, 0.4 uM, 2 uM, 10 uM, 50 uM) from 6 hpf to 3 dpf, and the behavior was detected by viewpoint behavioral recorder. The concrete scheme was as follows: [table]

[2] = system: ghrelin mutant zebrafish; experiment: Behavior tracking of ghrelin mutant zebrafish larvae treated with methylphenidate; type: in vivo; conditions: ghrelin-/- embryos, 10 uM for 1 h at 3 dpf (FIG. 6)
Method: The embryos produced by ghrelin+/+, ghrelin−/− zebrafish intercross were treated with Methylphenidate at 72 hpf for 1 h. Pick a single hatched zebrafish larvae into a 96-well plate, behavior was tested as following table. After test, the genotype of the zebrafish larvae was identified by PCR and enzyme digestion.
The ghrelin^−/− embryos were treated with 10 uM methylphenidate for 1 h at 3 dpf, and the movement distance was measured by behavior recorder.

| SMILES | activity phenotype of normal zebrafish larvae (behavioral recorder) [1] | movement distance of ghrelin mutant after treatment [2] | movement distance of treated ghrelin mutant compared with the control group [2] |
| --- | --- | --- | --- |
| Cc1nc2ccc(Oc3ccc(F)cc3)cc2c(=O)n1C[C@H]1CCCN(C(C)C)C1 [YIL781] | induced normal zebrafish to produce a hyperactivity phenotype | – | – |
| COC(=O)C(c1ccccc1)C1CCCCN1 (stereo not drawn) [methylphenidate] | – | decreased its movement distance | no significantly different with the control group |
